# Test results as given in paper PMC10488193, “Evaluation of the Chemical Stability, Membrane Permeability and Antiproliferative Activity of Cyclic Diarylheptanoids from European Hornbeam (Carpinus betulus L.)” (International Journal of Molecular Sciences, 2023).
# Tests used:
# [1] = tested on: A549 human lung adenocarcinoma cells; design: method as in PMID 28520428, PMID 28941682; settings: cited from earlier work
# [2] = tested on: HeLa human cervical adenocarcinoma cells; design: method as in PMID 28520428, PMID 28941682; settings: cited from earlier work
# [3] = tested on: A375 human melanoma cell line; design: method as in PMID 28208804; settings: cited from earlier work
# [4] = tested on: SK-Mel-28 human melanoma cell line; design: method as in PMID 28208804; settings: cited from earlier work
# [5] = design: method as in PMID 12350169; settings: cited from earlier work
# [6] = tested on: lipid peroxidation in human plasma; design: method as in PMID 28520428; settings: cited from earlier work
# PAMPA-BBB = format: in vitro ADME; settings: pH 7.4, read-out: logPe PAMPA-BBB (n = 9) (converted)
# Procedure: A parallel artificial membrane permeability assay (PAMPA) was used to determine the effective permeability (Pe) for the Carpinus diarylheptanoids. Stock solutions of the isolated compounds (10 mM in DMSO) were diluted with the defined buffer (pH 7.4 for the PAMPA-BBB and pH 6.8 for the PAMPA-GI assays) to obtain the donor solutions (composition: 297.0 μL buffer + 3.0 μL stock solution). Donor solutions were filtered through Phenex-RC 15 mm, 0.2 μm syringe filters (Gen-Lab Ltd., Budapest, Hungary).
# For the PAMPA-BBB test, 5 μL of porcine polar brain lipid extract (PBLE) solution (16.0 mg PBLE + 8.0 mg cholesterol dissolved in 600.0 μL n-dodecane) was applied for each well of the 96-well polycarbonate-based filter donor plates (top plate) (Multiscreen™-IP, MAIPN4510, pore size 0.45 μm; Merck). […]
# After the incubation, the plates were separated and the compound concentrations in the donor (CD(t)) and acceptor (CA(t)) solutions were determined using the aforementioned UHPLC-DAD method (see Section 3.4). […]
# All experiments were performed in three triplicates on three consecutive days (n = 9); caffeine standard was used as positive, while rutin was used as negative control. Clog P values were calculated using ACD/ChemSketch (Freeware) 2 January 2020 (Advanced Chemistry Development, Inc., Toronto, ON, Canada).
Compound,IC50 [1] [µM],IC50 [2] [µM],cytotoxic concentration (not cytotoxic up to) [3] [µM],cytotoxic concentration (not cytotoxic up to) [4] [µM],antioxidant activity (in words) [5],lipid peroxidation induced by H2O2 (in words) [6],"Papp at 4 h, 100 µM (PAMPA-BBB) [×10⁻⁶ cm/s]"
"O=C1CCc2ccc(O)c(c2)-c2cc(ccc2O)C[C@H](O)[C@H](O)[C@H]1O [Compound 2, carpinontriol B]",> 100,> 100,> 1000,> 1000,only weak antioxidant activity,inhibited lipid peroxidation,–
"O=C1C[C@H](O)[C@@H](O)Cc2ccc(O)c(c2)-c2cc(ccc2O)C[C@H]1O [Compound 1, carpinontriol A]",–,–,–,–,only weak antioxidant activity,–,–
"O=C1CCc2ccc(O)c(c2)-c2cc(ccc2O)C[C@@H](O)[C@H](O)C1 [Compound 3, giffonin X]",–,–,–,–,–,–,1.2
